Data from US9328122B2, “7-substituted Hanfangichin B derivative, and preparation method and use thereof” (HANGZHOU BENSHENG PHARMACEUTICAL CO., LTD., priority 2012, dated 2016).
≈ marks a conversion by molar mass, not a printed value.

What was measured:
[1] = tested on: tumor; experiment: Antitumor activity compared with fangchinoline, overall statement; format: cell-based; settings: tumor type not specified
[2] = tested on: RPMI 8226 (multiple myeloma) cells; experiment: MTT cell growth inhibition, multiple myeloma cells; format: cell-based, human; settings: Homo sapiens, RPMI 8226, 72 h, MTT; for IC50: read-out: IC50; for IC90: read-out: IC90
How it was run: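 RPMI 8226 myeloma cells, 6000 per well in RPMI-1640 with 10% FBS, were dosed with fangchinoline derivatives at several concentrations the day after seeding. Incubation ran 72 h at 37° C in 5% CO2, then viable cells were measured by MTT.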

[3] = tested on: RKO (human colon adenocarcinoma) cells; experiment: MTT cell growth inhibition, solid tumor cells; format: cell-based; settings: for IC50 / IC90: Homo sapiens, RKO, 72 h, MTT; for IC50: read-out: IC50; for IC90: read-out: IC90
How it was run: (§1)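 Cells, 6000 per well in DMEM high glucose with 10% FBS, grew 24 h at 37° C, 5% CO2, then were exposed to compounds at varying concentrations for 72 h. Viable cells were measured by MTT.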

[4] = tested on: MGC-803 (human gastric cancer) cells; experiment: MTT cell growth inhibition, solid tumor cells; format: cell-based; settings: MGC-803, 72 h, MTT; for IC50: read-out: IC50; for IC90: read-out: IC90
How it was run: as §1

[5] = tested on: Hela (human cervical cancer) cells; experiment: MTT cell growth inhibition, solid tumor cells; format: cell-based; settings: for IC50 / IC90: Homo sapiens, Hela, 72 h, MTT; for IC50: read-out: IC50; for IC90: read-out: IC90
How it was run: as §1

[6] = tested on: Becap-37 (human breast cancer) cells; experiment: MTT cell growth inhibition, solid tumor cells; format: cell-based; settings: for IC50 / IC90: Homo sapiens, Becap-37, 72 h, MTT; for IC50: read-out: IC50; for IC90: read-out: IC90
How it was run: as §1

[7] = tested on: Hep-2 (laryngeal carcinoma) cells; experiment: MTT cell growth inhibition, solid tumor cells; format: cell-based; settings: Homo sapiens, Hep-2, 72 h, MTT; for IC50: read-out: IC50; for IC90: read-out: IC90
How it was run: as §1

[8] = tested on: A549 (human lung cancer) cells; experiment: MTT cell growth inhibition, solid tumor cells; format: cell-based; settings: Homo sapiens, A549, 72 h, MTT; for IC50: read-out: IC50; for IC90: read-out: IC90
How it was run: as §1

[9] = tested on: Hep G2 (human liver cancer) cells; experiment: MTT cell growth inhibition, solid tumor cells; format: cell-based; settings: for IC50 / IC90: Homo sapiens, HepG2, Hep G2, 72 h, MTT; for IC50: read-out: IC50; for IC90: read-out: IC90
How it was run: as §1

[10] = tested on: MG-63 (osteosarcoma) cells; experiment: MTT cell growth inhibition, solid tumor cells; format: cell-based; settings: Homo sapiens, MG-63, 72 h, MTT; for IC50: read-out: IC50; for IC90: read-out: IC90
How it was run: as §1

[11] = tested on: U87-MG (malignant glioma) cells; experiment: MTT cell growth inhibition, solid tumor cells; format: cell-based; settings: Homo sapiens, U-87 MG, U87-MG, 72 h, MTT; for IC50: read-out: IC50; for IC90: read-out: IC90
How it was run: as §1

[12] = tested on: NB4 (acute promyelocytic leukemia) cells; experiment: MTT cell growth inhibition, leukemia cells; format: cell-based; settings: Homo sapiens, NB4, 72 h, MTT; for IC50: read-out: IC50; for IC90: read-out: IC90
How it was run: (§2)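 Leukemia cells (6000 per well) in RPMI-1640 with 10% FBS were exposed to 7-substituted fangchinoline derivatives at varying concentrations the day after seeding. After 72 h at 37° C., 5% CO2, viable cell concentration was measured by MTT.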

[13] = tested on: K562/ADR (K562adr, drug-resistant chronic myeloid leukemia) cells; experiment: MTT cell growth inhibition, leukemia cells; format: cell-based; settings: Homo sapiens, K562/ADR, 72 h, MTT; for IC50: read-out: IC50; for IC90: read-out: IC90
How it was run: as §2

[14] = tested on: SK-OV-3 (ovarian cancer) cells; experiment: MTT cell growth inhibition, solid tumor cells; format: cell-based, human; settings: for IC50 / IC90: Homo sapiens, SK-OV-3, 72 h, MTT; for IC50: read-out: IC50; for IC90: read-out: IC90
How it was run: as §1

[15] = tested on: PANC-1 (pancreatic cancer) cells; experiment: MTT cell growth inhibition, solid tumor cells; format: cell-based, human; settings: for IC50 / IC90: Homo sapiens, PANC-1, 72 h, MTT; for IC50: read-out: IC50; for IC90: read-out: IC90
How it was run: as §1

[16] = tested on: PC-3 (prostate cancer) cells; experiment: MTT cell growth inhibition, solid tumor cells; format: cell-based, human; settings: for IC50 / IC90: Homo sapiens, PC-3, 72 h, MTT; for IC50: read-out: IC50; for IC90: read-out: IC90
How it was run: as §1

[17] = tested on: CNE (nasopharyngeal carcinoma) cells; experiment: MTT cell growth inhibition, solid tumor cells; format: cell-based, human; settings: for IC50 / IC90: Homo sapiens, CNE, 72 h, MTT; for IC50: read-out: IC50; for IC90: read-out: IC90
How it was run: as §1

[18] = tested on: CaEs-17 (esophageal cancer) cells; experiment: MTT cell growth inhibition, solid tumor cells; format: cell-based, human; settings: for IC50 / IC90: Homo sapiens, CaEs17, CaEs-17, 72 h, MTT; for IC50: read-out: IC50; for IC90: read-out: IC90
How it was run: as §1

[19] = relative to fangchinoline, Table 2

COc1cc(OC)cc(C(=O)Oc2c(OC)cc3c4c2Oc2cc5c(cc2OC)CCN(C)[C@H]5Cc2ccc(cc2)Oc2cc(ccc2OC)C[C@@H]4N(C)CC3)c1 [BS-FC-311]
antitumor activity compared with that of fangchinoline [1]: significantly superior | IC50 [2]: 0.13 µg/mL (≈ 0.168 µM) | IC90 [2]: 0.49 µg/mL (≈ 0.634 µM) | IC50 [3]: 1.32 µg/mL (≈ 1.71 µM) | IC90 [3]: 3.24 µg/mL (≈ 4.19 µM) | IC50 [4]: 1.4 µg/mL (≈ 1.81 µM) | IC90 [4]: 4.79 µg/mL (≈ 6.2 µM) | IC50 [5]: 0.5 µg/mL (≈ 0.647 µM) | IC90 [5]: 2.89 µg/mL (≈ 3.74 µM) | anti-Hela activity increase over fangchinoline [5, 19]: ~4 fold | IC50 [6]: 1.53 µg/mL (≈ 1.98 µM) | IC90 [6]: 3.03 µg/mL (≈ 3.92 µM) | IC50 [7]: 1.64 µg/mL (≈ 2.12 µM) | IC90 [7]: 4.85 µg/mL (≈ 6.28 µM) | IC50 [8]: 1.36 µg/mL (≈ 1.76 µM) | IC90 [8]: 4.38 µg/mL (≈ 5.67 µM) | IC50 [9]: 1.4 µg/mL (≈ 1.81 µM) | IC90 [9]: 2.76 µg/mL (≈ 3.57 µM) | IC50 [10]: 2 µg/mL (≈ 2.59 µM) | IC90 [10]: 4.37 µg/mL (≈ 5.65 µM) | IC50 [11]: 1.25 µg/mL (≈ 1.62 µM) | IC90 [11]: 3.8 µg/mL (≈ 4.92 µM) | IC50 [12]: 0.22 µg/mL (≈ 0.285 µM) | IC90 [12]: 0.96 µg/mL (≈ 1.24 µM) | IC50 [13]: 0.48 µg/mL (≈ 0.621 µM) | IC90 [13]: 2.83 µg/mL (≈ 3.66 µM) | IC50 [14]: 2.87 µg/mL (≈ 3.71 µM) | IC90 [14]: 3.96 µg/mL (≈ 5.12 µM) | IC50 [15]: 2.95 µg/mL (≈ 3.82 µM) | IC90 [15]: 4.8 µg/mL (≈ 6.21 µM) | IC50 [16]: 3.08 µg/mL (≈ 3.99 µM) | IC90 [16]: 8.39 µg/mL (≈ 10.9 µM) | IC50 [17]: 1.83 µg/mL (≈ 2.37 µM) | IC90 [17]: 5.04 µg/mL (≈ 6.52 µM) | IC50 [18]: 1.95 µg/mL (≈ 2.52 µM) | IC90 [18]: 7.37 µg/mL (≈ 9.54 µM)

COc1ccc2cc1Oc1ccc(cc1)C[C@H]1c3cc(c(OC)cc3CCN1C)Oc1c(OC(=O)c3c(F)cccc3Cl)c(OC)cc3c1[C@H](C2)N(C)CC3 [BS-FC-315]
antitumor activity compared with that of fangchinoline [1]: significantly superior | IC50 [2]: 0.13 µg/mL (≈ 0.17 µM) | IC90 [2]: 0.48 µg/mL (≈ 0.627 µM) | IC50 [3]: 1.15 µg/mL (≈ 1.5 µM) | IC90 [3]: 2.23 µg/mL (≈ 2.91 µM) | IC50 [4]: 1.21 µg/mL (≈ 1.58 µM) | IC90 [4]: 3.02 µg/mL (≈ 3.95 µM) | IC50 [5]: 1.5 µg/mL (≈ 1.96 µM) | IC90 [5]: 3.35 µg/mL (≈ 4.38 µM) | IC50 [6]: 2.1 µg/mL (≈ 2.74 µM) | IC90 [6]: 3.79 µg/mL (≈ 4.95 µM) | IC50 [7]: 3.66 µg/mL (≈ 4.78 µM) | IC90 [7]: 6.4 µg/mL (≈ 8.36 µM) | IC50 [8]: 1.85 µg/mL (≈ 2.42 µM) | IC90 [8]: 3.48 µg/mL (≈ 4.55 µM) | IC50 [9]: 1.39 µg/mL (≈ 1.82 µM) | IC90 [9]: 3.74 µg/mL (≈ 4.89 µM) | IC50 [10]: 2.4 µg/mL (≈ 3.14 µM) | IC90 [10]: 3.9 µg/mL (≈ 5.1 µM) | IC50 [11]: 1.34 µg/mL (≈ 1.75 µM) | IC90 [11]: 3.24 µg/mL (≈ 4.23 µM) | IC50 [12]: 0.33 µg/mL (≈ 0.431 µM) | IC90 [12]: 1.32 µg/mL (≈ 1.72 µM) | IC50 [13]: 0.26 µg/mL (≈ 0.34 µM) | IC90 [13]: 2.14 µg/mL (≈ 2.8 µM) | IC50 [14]: 2.99 µg/mL (≈ 3.91 µM) | IC90 [14]: 6.81 µg/mL (≈ 8.9 µM) | IC50 [15]: 1.61 µg/mL (≈ 2.1 µM) | IC90 [15]: 5.52 µg/mL (≈ 7.21 µM) | IC50 [16]: 2.95 µg/mL (≈ 3.85 µM) | IC90 [16]: 5.02 µg/mL (≈ 6.56 µM) | IC50 [17]: 3.3 µg/mL (≈ 4.31 µM) | IC90 [17]: 6.6 µg/mL (≈ 8.62 µM) | IC50 [18]: 1.84 µg/mL (≈ 2.4 µM) | IC90 [18]: 3.86 µg/mL (≈ 5.04 µM)

COc1ccc2cc1Oc1ccc(cc1)C[C@H]1c3cc(c(OC)cc3CCN1C)Oc1c(OCC(O)CN3CCCCC3)c(OC)cc3c1[C@H](C2)N(C)CC3 (stereo partly drawn) [BS-FC-403]
antitumor activity compared with that of fangchinoline [1]: significantly superior | IC50 [2]: < 0.125 µg/mL | IC90 [2]: 0.13 µg/mL (≈ 0.173 µM) | IC50 [3]: 0.34 µg/mL (≈ 0.453 µM) | IC90 [3]: 0.79 µg/mL (≈ 1.05 µM) | anti-RKO activity increase over fangchinoline [3, 19]: ~3 fold | IC50 [4]: 0.4 µg/mL (≈ 0.533 µM) | IC90 [4]: 4.14 µg/mL (≈ 5.52 µM) | IC50 [5]: 0.9 µg/mL (≈ 1.2 µM) | IC90 [5]: 2.96 µg/mL (≈ 3.95 µM) | IC50 [6]: 0.59 µg/mL (≈ 0.787 µM) | IC90 [6]: 2.09 µg/mL (≈ 2.79 µM) | anti-Becap37 activity increase over fangchinoline [6, 19]: ~3 fold | IC50 [7]: 1.76 µg/mL (≈ 2.35 µM) | IC90 [7]: 5.66 µg/mL (≈ 7.55 µM) | IC50 [8]: 1.84 µg/mL (≈ 2.45 µM) | IC90 [8]: 6.34 µg/mL (≈ 8.45 µM) | IC50 [9]: 0.55 µg/mL (≈ 0.733 µM) | IC90 [9]: 2.23 µg/mL (≈ 2.97 µM) | anti-Hep G2 activity increase over fangchinoline [9, 19]: ~3 fold | IC50 [10]: 0.6 µg/mL (≈ 0.8 µM) | IC90 [10]: 1.3 µg/mL (≈ 1.73 µM) | IC50 [11]: 0.71 µg/mL (≈ 0.947 µM) | IC90 [11]: 1.73 µg/mL (≈ 2.31 µM) | IC50 [12]: 0.3 µg/mL (≈ 0.4 µM) | IC90 [12]: 0.78 µg/mL (≈ 1.04 µM) | IC50 [13]: 0.05 µg/mL (≈ 0.0667 µM) | IC90 [13]: 0.83 µg/mL (≈ 1.11 µM) | IC50 [14]: 1.03 µg/mL (≈ 1.37 µM) | IC90 [14]: 3.85 µg/mL (≈ 5.13 µM) | anti-SK-OV-3 activity increase over fangchinoline [14, 19]: ~3 fold | IC50 [15]: 1.03 µg/mL (≈ 1.37 µM) | IC90 [15]: 3.17 µg/mL (≈ 4.23 µM) | anti-PANC-1 activity increase over fangchinoline [15, 19]: ~3 fold | IC50 [16]: 1.49 µg/mL (≈ 1.99 µM) | IC90 [16]: 3.96 µg/mL (≈ 5.28 µM) | anti-PC-3 activity increase over fangchinoline [16, 19]: ~3 fold | IC50 [17]: 0.87 µg/mL (≈ 1.16 µM) | IC90 [17]: 2.2 µg/mL (≈ 2.93 µM) | anti-CNE activity increase over fangchinoline [17, 19]: ~3 fold | IC50 [18]: 0.43 µg/mL (≈ 0.573 µM) | IC90 [18]: 1.99 µg/mL (≈ 2.65 µM) | anti-CaEs-17 activity increase over fangchinoline [18, 19]: ~4 fold
